Experimental findings from ChEMBL document CHEMBL1138077, “Arylpiperazines with N-acylated amino acids as 5-HT1A receptor ligands” (Bioorg Med Chem Lett, 2006) are described below.

As usually defined, the Ki is a dissociation constant, usually derived from enzyme kinetics or from competition with a known ligand.

The target in this assay is T1, 5-hydroxytryptamine receptor 1A (Homo sapiens, UniProt P08908).
T1 sequence (P08908 whole entry): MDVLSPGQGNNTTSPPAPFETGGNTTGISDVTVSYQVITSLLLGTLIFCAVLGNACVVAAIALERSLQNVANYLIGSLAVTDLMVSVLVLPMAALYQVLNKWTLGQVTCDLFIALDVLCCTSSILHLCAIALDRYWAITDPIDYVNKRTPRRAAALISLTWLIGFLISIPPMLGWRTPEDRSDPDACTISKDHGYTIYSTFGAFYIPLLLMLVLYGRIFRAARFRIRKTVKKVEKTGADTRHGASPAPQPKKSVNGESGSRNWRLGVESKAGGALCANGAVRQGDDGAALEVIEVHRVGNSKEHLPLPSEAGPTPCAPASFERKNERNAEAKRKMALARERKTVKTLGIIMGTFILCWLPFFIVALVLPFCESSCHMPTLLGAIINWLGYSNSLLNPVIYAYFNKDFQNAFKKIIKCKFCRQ
In words: Affinity for 5HT1A receptor.

`COc1ccccc1N1CCN(CCCCNC(=O)[C@H]2CCCN2C(=O)CC2CC3CCC2C3)CC1` (some centres undefined) yielded a Ki of 17 nM.

`COc1ccccc1N1CCN(CCCN2C(=O)C[C@H](NC(=O)c3ccccc3)C2=O)CC1` yielded a Ki of 260 nM. Compound `COc1ccccc1N1CCN(CCCCN2C(=O)C[C@@H](NC(=O)C3CCCCC3)C2=O)CC1` had a Ki of 17 nM. As for `COc1ccccc1N1CCN(CCCCNC(=O)[C@@H]2CCC(=O)N2C(=O)CC2CC3CCC2C3)CC1` (some centres undefined), affinity was put at a Ki of 12 nM. Compound `COc1ccccc1N1CCN(CCCN2C(=O)C[C@H](NC(=O)C3CCCC3)C2=O)CC1` came in with a Ki of 170 nM.

Take `COc1ccccc1N1CCN(CCCCNC(=O)[C@H](CC(N)=O)NC(=O)CC2CC3CCC2C3)CC1` (some centres undefined): the Ki turned out to be 11 nM. Regarding `COc1ccccc1N1CCN(CCCCNC(=O)[C@@H]2CCCN2C(=O)C23CC4CC(CC(C4)C2)C3)CC1`, affinity was put at a Ki of 4 nM. Compound `COc1ccccc1N1CCN(CCCCN2C(=O)C[C@H](NC(C)=O)C2=O)CC1` registered a Ki of 69 nM. For `COc1ccccc1N1CCN(CCCCN2C(=O)C[C@@H](NC(=O)C34CC5CC(CC(C5)C3)C4)C2=O)CC1`, the Ki is 9 nM. In the case of `COc1ccccc1N1CCN(CCCCN2C(=O)C[C@H](NC(=O)C3CCCC3)C2=O)CC1`, affinity was put at a Ki of 40 nM. `COc1ccccc1N1CCN(CCCCNC(=O)[C@H](CC(N)=O)NC(=O)C2CCCCC2)CC1` showed an inhibition constant (Ki) of 24 nM. As for `COc1ccccc1N1CCN(CCCN2C(=O)C[C@H](NC(=O)CC3CC4CCC3C4)C2=O)CC1` (some centres undefined), the Ki came to 40 nM. `COc1ccccc1N1CCN(CCCCN2C(=O)C[C@H](NC(=O)C34CC5CC(CC(C5)C3)C4)C2=O)CC1` registered a Ki of 15 nM. The value for `COc1ccccc1N1CCN(CCCCN2C(=O)C[C@@H](NC(=O)CC3CC4CCC3C4)C2=O)CC1` (stereo in doubt; 9'{5,5}) was 17 nM; that for `COc1ccccc1N1CCN(CCCCN2C(=O)C[C@H](NC(=O)CC3CC4CCC3C4)C2=O)CC1` (some centres undefined) was 18 nM; that for `COc1ccccc1N1CCN(CCCCN2C(=O)C[C@H](NC(=O)c3ccccc3)C2=O)CC1` was 50 nM.

On to `COc1ccccc1N1CCN(CCCCNC(=O)[C@H]2CCCN2C(=O)C23CC4CC(CC(C4)C2)C3)CC1`, for which the affinity, expressed as Ki, was 25 nM.

For `COc1ccccc1N1CCN(CCCCN2C(=O)C[C@H](NC(=O)C3CCCCC3)C2=O)CC1`, affinity was put at a Ki of 29 nM.

Turning to `COc1ccccc1N1CCN(CCCN2C(=O)C[C@H](NC(=O)C3CCCCC3)C2=O)CC1`, the Ki came out at 230 nM. Compound `COc1ccccc1N1CCN(CCCN2C(=O)C[C@H](NC(=O)C34CC5CC(CC(C5)C3)C4)C2=O)CC1` came in with a Ki of 63 nM. `COc1ccccc1N1CCN(CCCN2C(=O)C[C@H](NC(C)=O)C2=O)CC1` displayed a Ki of 480 nM.

Turning to `COc1ccccc1N1CCN(CCCCNC(=O)[C@@H]2CCCN2C(=O)C2CCCCC2)CC1`, the affinity corresponds to a Ki of 27 nM. The compound `COc1ccccc1N1CCN(CCCCNC(=O)[C@@H]2CCC(=O)N2C(=O)C2CCCCC2)CC1` came in with a Ki of 17 nM.

The compound `COc1ccccc1N1CCN(CCCCNC(=O)[C@@H]2CCCN2C(=O)CC2CC3CCC2C3)CC1` (some centres undefined) displayed a Ki of 12 nM.
